Drawing on BindingDB's records for patent US8822500 (Chembridge, 2014), this text covers IC50 for one compound.

In general, IC50 refers to the concentration that inhibits the measured activity by half.

In the assay the target is ALK tyrosine kinase receptor (Homo sapiens, UniProt Q9UM73). Kind of assay: In Vitro Kinase Activity Assay. The note with it: pH 7.5.
Chain of ALK tyrosine kinase receptor (Q9UM73 whole entry): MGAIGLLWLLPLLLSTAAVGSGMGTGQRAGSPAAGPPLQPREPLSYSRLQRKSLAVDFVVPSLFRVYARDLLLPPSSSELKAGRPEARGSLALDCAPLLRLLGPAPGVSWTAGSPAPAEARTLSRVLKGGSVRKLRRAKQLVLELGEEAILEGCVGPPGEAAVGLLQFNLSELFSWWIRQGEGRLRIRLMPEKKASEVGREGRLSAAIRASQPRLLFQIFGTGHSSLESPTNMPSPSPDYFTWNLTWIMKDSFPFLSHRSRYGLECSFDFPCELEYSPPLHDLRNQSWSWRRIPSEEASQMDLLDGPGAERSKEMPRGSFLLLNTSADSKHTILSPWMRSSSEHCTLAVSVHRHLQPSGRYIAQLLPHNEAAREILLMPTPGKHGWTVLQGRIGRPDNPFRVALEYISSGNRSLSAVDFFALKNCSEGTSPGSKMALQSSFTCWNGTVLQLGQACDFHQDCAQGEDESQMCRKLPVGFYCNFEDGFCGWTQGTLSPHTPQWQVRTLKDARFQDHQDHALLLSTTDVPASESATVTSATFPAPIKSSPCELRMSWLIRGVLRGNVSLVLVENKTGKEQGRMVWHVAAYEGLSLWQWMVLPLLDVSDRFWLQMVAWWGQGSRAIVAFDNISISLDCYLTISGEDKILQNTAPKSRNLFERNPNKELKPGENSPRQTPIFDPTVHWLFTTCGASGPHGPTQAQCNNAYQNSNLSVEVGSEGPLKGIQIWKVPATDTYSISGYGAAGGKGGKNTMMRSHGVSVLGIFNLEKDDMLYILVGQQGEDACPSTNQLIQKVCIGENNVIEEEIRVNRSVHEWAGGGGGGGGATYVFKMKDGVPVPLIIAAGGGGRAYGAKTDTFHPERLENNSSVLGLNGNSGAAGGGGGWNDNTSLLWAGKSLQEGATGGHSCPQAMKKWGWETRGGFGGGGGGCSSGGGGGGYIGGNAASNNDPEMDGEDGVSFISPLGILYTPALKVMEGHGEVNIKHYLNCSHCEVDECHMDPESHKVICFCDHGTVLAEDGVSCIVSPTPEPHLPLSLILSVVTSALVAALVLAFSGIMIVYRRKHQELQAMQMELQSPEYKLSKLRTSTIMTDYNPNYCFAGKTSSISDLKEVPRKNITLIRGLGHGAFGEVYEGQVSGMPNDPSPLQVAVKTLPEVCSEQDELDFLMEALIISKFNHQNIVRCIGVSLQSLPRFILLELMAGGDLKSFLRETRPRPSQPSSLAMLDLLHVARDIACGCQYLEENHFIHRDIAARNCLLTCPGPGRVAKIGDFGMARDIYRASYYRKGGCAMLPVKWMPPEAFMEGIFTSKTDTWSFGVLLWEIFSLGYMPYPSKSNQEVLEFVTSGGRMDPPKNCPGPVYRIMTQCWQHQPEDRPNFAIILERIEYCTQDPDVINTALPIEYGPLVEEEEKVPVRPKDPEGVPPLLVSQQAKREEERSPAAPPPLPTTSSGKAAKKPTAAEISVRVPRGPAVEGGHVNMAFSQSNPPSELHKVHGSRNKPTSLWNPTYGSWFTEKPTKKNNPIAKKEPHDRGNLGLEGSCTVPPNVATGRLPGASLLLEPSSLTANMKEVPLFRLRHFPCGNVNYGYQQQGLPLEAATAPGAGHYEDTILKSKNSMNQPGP

With `CC(Cc1cc(F)ccc1F)Nc1cc[nH]c(=O)c1-c1nc2cc3c(cc2[nH]1)C(=O)N(C1CCN(C)CC1)C3=O` (stereo unspecified) [US8822500, [28]], the IC50 is 15.1 nM.
